Reference: patent publication US10792335B2, “Rapid-acting insulin composition comprising a substituted citrate” (ADOCIA, priority 2015, dated 2020)
Peptide text beside a SMILES is read from it. * marks the point of attachment. Cbz = O=C(OCc1ccccc1)*

Assays:
[1] = Solubility in the presence of insulin lispro 100 IU/mL (commercial Humalog, visual inspection); format: physicochemical; conditions: commercial insulin lispro solution (Humalog) 100 IU/mL, aqueous with cosolvent or surfactant or cyclodextrin, thermodynamic from solid, pH 7.4±0.4, ambient temperature, 30 minutes stirring, read-out: Solubility (limit of solubility)
Description: The solubility of the substituted citrates (A1, A2, A3 and A4) is measured in the presence of insulin lispro 100 U/mL. In a commercial solution of insulin lispro (Humalog®) (1 mL), the substituted citrate in powder form (20 mg) is introduced. The tube was stirred (rolling shaker) for 30 minutes at ambient temperature, then inspected visually. The pH is adjusted to 7.4±0.4.
The solubility of the compounds of the prior art was also measured in the presence of insulin lispro 100 U/mL. 1 mL of a commercial solution of Humalog was introduced into a glass tube, at ambient temperature. The compounds in powder form were added successively in the amount of 2 mg per addition. After each addition of compound, the tubes were stirred (rolling shaker) for 30 minutes at ambient temperature, then inspected visually. The pH is adjusted to 7.4±0.4.
The concentrations at which insoluble matter was observed are defined as being greater than the limit of solubility of the compound in the presence of insulin lispro 100 IU/mL.

[2] = Solubility in a buffer solution at 50 mM Tris/HCl pH 7.4 (visual inspection); format: physicochemical
Description: The solubility of the substituted citrates (A1, A2, A3 and A4) was measured in a buffer solution.
In a buffer solution at 50 mM of Tris/HCl, pH 7.4 (1 mL), the substituted citrate in powder form (20 mg) is introduced. The tubes are stirred (rolling shaker) for 30 minutes at ambient temperature, then inspected visually. The pH is adjusted to 7.4±0.4.
The solubility of the compounds of the prior art (CE1 and CE2) was measured.
4 mL of a buffer solution at 50 mM of Tris/HCl at pH 7.4 were introduced into a glass tube, at ambient temperature. The compounds in powder form were added successively in the amount of 8 mg per addition. After each addition of compound, the tubes were stirred (rolling shaker) for 30 minutes at ambient temperature, then inspected visually. The pH is adjusted to 7.4±0.4.
The concentrations at which insoluble matter was observed are defined as being greater than the limit of solubility of the compound.

[3] = target: T1, hexameric R6 form of human insulin (Homo sapiens, UniProt P01308); assay: Association state of human insulin evaluated by circular dichroism (CD signal at 240 nm); format: physicochemical; conditions: human insulin 100 IU/mL (Humulin R), pH 7.4; additive alone (EDTA 300 μM or 6 mM; substituted citrate 7.3 or 14.6 mg/mL)
T1 construct: The human insulin has a strong signal at 240 nm, characteristic of the hexameric R6 form
T1 sequence (P01308 25-54 limits assumed): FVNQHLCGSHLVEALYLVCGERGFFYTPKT
T1 sequence (P01308 90-110 limits assumed): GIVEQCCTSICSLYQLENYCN
Description: Circular dichroism makes it possible to study the secondary and quaternary structures of insulin. The monomers of insulin self-organize to form dimers and hexamers. […] There are two hexameric forms, the R6 form and the T6 form. […] The loss of the signal at 240 nm is connected with a destabilization of the hexamer and the conversion from R6 to T6.
For a final volume of 100 mL of formulation, with a concentration of substituted citrate at 7.3 mg/mL and a concentration of 9.3 mM of citrate, the different reagents are added in quantities specified below and in the following order:
For a final volume of 100 mL of formulation, with a concentration of substituted citrate at 7.3 mg/mL or 14.6 mg/mL, the different reagents are added in the quantities specified below and in the following order:
For a final volume of 100 mL of formulation, with a concentration of 300 μM or 6 mM of EDTA, the different reagents are added in the quantities specified below and in the following order:
(§1) Two measurement series were carried out.

[4] = target: T2, hexameric R6 form of insulin lispro (Homo sapiens, UniProt P01308, K53P/P52K); assay: Association state of the insulin lispro evaluated by circular dichroism (CD signal at 240 nm); format: physicochemical; conditions: insulin lispro 100 IU/mL (Humalog), pH 7.4; additive alone (EDTA 300 μM; substituted citrate 7.3 or 14.6 mg/mL)
T2 construct: The insulin lispro has a strong signal at 240 nm characteristic of the hexameric R6 form; purchased Lilly
T2 sequence (P01308 25-54 P52K/K53P limits assumed): as the sequence (P01308 25-54 limits assumed) above, with P28K, K29P counted along it
Description: Circular dichroism makes it possible to study the secondary and quaternary structure of the insulin. The monomers of insulin self-organize to form dimers and hexamers. […] There are two hexameric forms, R6 form and T6 form. […] The loss of the signal at 240 nm is connected with a destabilization of the hexamer and the conversion from R6 to T6.
For a final volume of 100 mL of formulation, with a concentration of substituted citrate at 7.3 mg/mL and a concentration of 9.3 mM of citrate, the different reagents are added in the quantities specified below and in the following order:
For a final volume of 100 mL of formulation, with a concentration of substituted citrate at 7.3 mg/mL, the different reagents are added in the quantities specified below and in the following order:
For a final volume of 100 mL of formulation, with a concentration of 300 μM of EDTA, the different reagents are added in the quantities specified below and in the following order:
as §1
Circular dichroism makes it possible to study the secondary and quaternary structures of insulin. The monomers of insulin self-organize to form dimers and hexamers. […]
For a final volume of 100 mL of formulation, with a concentration of substituted citrate at 7.3 mg/mL or 14.6 mg/mL, the different reagents are added in the quantities specified below and in the following order: […]

[5] = injected by the subcutaneous route, diabetic patients; cited from earlier work
[6] = 50 mM Tris/HCl buffer, aqueous buffer, thermodynamic from solid, buffer solution 50 mM Tris/HCl, pH 7.4, ambient temperature, 30 minutes stirring, read-out: Solubility (limit of solubility)
[7] = pH 7.4, thermodynamic from solid, medium not named at this place, sums up Tables 3 and 4 (Tris/HCl buffer and Humalog), read-out: limit of solubility (summary statement)

O=C(N[C@@H](Cc1ccccc1)C(=O)N[C@@H](Cc1ccccc1)C(=O)O)OCc1ccccc1 [CE1, N-Carbobenzoxy-L- phenylalanyl-L- phenylalanine] (Cbz-Phe-Phe-OH)
solubility at 30 min [1]: < 2000 µg/mL | solubility at 30 min [2, 6]: < 2000 µg/mL | solubility at 30 min [2, 7]: < 2000 µg/mL

O=C(N[C@@H](Cc1ccccc1)C(=O)O)c1ccccc1 [CE2, Benzoyl-L- phenylalanine]
solubility at 30 min [1]: < 2000 µg/mL | solubility at 30 min [2, 6]: < 2000 µg/mL | solubility at 30 min [2, 7]: < 2000 µg/mL

O=C(O)CN(CCN(CC(=O)O)CC(=O)O)CC(=O)O [EDTA]
impact on the CD signal at 240 nm / R6 form of the human insulin hexamer [3]: completely destructures the R6 form | impact on the CD signal at 240 nm / R6 form of the insulin lispro hexamer [4]: completely destructures the R6 form

human insulin: human insulin produced by genetic engineering, injected subcutaneously
time after which a hypoglycemic effect is produced [5]: 60 min
